Assay results: US20250282802A1, “P[…] AND METHODS” (priority 2020, published 2025)
Like-named read-outs stand apart in the source and are kept apart here.

Legend:
[1] = system: MDA-MB-231 (breast cancer); test: Cytotoxicity profiling (Alamar Blue), MDA-MB-231; type: cell-based, human
Experimental: (§1) FIG. 8. Cytotoxicity of pantaphos across various cancer cell lines. Assays were conducted as described (mBio. 2021 Feb. 2; 12(1):e03402-20), using the Alamar Blue method with 72-hour treatment using Raptinal ([…]) as Dead cell control; n=3. Cell seeding densities: CT26 (colon carcinoma) 2000 c/w; HOS (osteosarcoma) 2500 c/w; ES-2 (ovarian carcinoma), HCT-116 (colorectal carcinoma), A-549 (lung carcinoma), A-172 (glioblastoma), D54 (glioblastoma), U87 (glioblastoma), T98G (glioblastoma), SK-ML-28 (melanoma), MCF-7 (breast cancer), AM38 (glioblastoma) and MDA-MB-231 (breast cancer) 3000 c/w; U118MG (malignant glioma) 4000 c/w; HepG2 (liver cancer) 8000 c/w. c/w=cells per well. IC50 and Emax values shown in Table 6 were extracted from the raw data plotted in FIG. 8.
Cell culture cytotoxicity screening. The compounds were evaluated for their ability to kill cancer cell lines in culture, using HOS (osteosarcoma); ES-2 (ovarian cancer); HCT 116 (colon cancer); A549 (lung carcinoma); and A172 (glioma) cells. Human skin fibroblast cells (HFF-1) were also assessed. Cells were seeded (3000 cells well^−1 for ES-2, HCT 116, A549 and A172; 4000 cells well^−1 for HFF-1 and 2500 cells well^−1 for HOS) in a 96-well plate and allowed to attach overnight. Cells were treated with pantaphos in water. The concentrations of the tested compounds were 5 nM to 100 μM (1% water final; 100 μl well^−1). Raptinal (50 μM) was used as a dead control. On each plate, five technical replicates per compound were performed. 72 hours post-treatment, cell viability was assessed using the Alamar Blue method (http://www.bio-rad-antibodies.com/measuring-cytotoxicity-proliferation-spectrophotometry-fluorescence-alamarBlue.html). […] Conversion of Alamar Blue was measured with a plate reader (SpectraMax M3; Molecular Devices) by fluorescence (excitation wavelength: 555 nm; emission wavelength: 585 nm; cutoff 570 nm; autogain). Percentage death was determined by normalizing to water-treated cells and Raptinal-treated cells. […]

Salmonella enterica LT2 = test: Antibacterial bioassay (MIC), Salmonella enterica; type: cell-based; conditions: CLSI
Experimental: (§2) Antibacterial bioassays. Susceptibility testing for the ESKAPE pathogens and Salmonella enterica LT2 was performed using a Kirby-Bauer method as outlined by the Clinical and Laboratory Standards Institute (CLSI). For rich media bioassays, Mueller Hinton Broth 2 (MH-2, Sigma-Aldrich, 90922) was used for all strains except 1% BHI was supplemented for Enterococcus faecalis ATCC 19433. For minimal media bioassays, glucose-MOPS minimal medium was used. Briefly, overnight bacterial cultures were sub-cultured and inoculated into 5 mL top agar (0.7% agar) for final concentration of 5×10^5 CFU/mL. Then, 20 μL of a compound 2-fold dilution series (200, 100, 50, 25, 12.5, 6.25 μM in water) was spotted on 6 mm diameter blank paper discs (BD BBL™ 231039). Control discs received 20 μL of 50 mg/mL kanamycin. Plates were incubated at 35° C. for 20-24 hours. […] Sensitivity of the IPTG-inducible phosphonate uptake strain WM6242 to pantaphos was tested using a disk diffusion assay. Plates containing growth medium were overlayed with 5 mL of top agar (0.7% agar) inoculated with 100 μL (OD600=0.8) of the phosphonate-specific E. coli indicator strain (WM6242) with or without addition of 1 mM IPTG. WM6242 is engineered with an IPTG-inducible, non-specific phosphonate uptake system (phnCDE). […]

[2] = system: Escherichia coli ATCC 25922; test: Antibacterial bioassay (MIC), Escherichia coli ATCC 25922; type: cell-based; conditions: CLSI
Experimental: as §2

[3] = system: A-549 (human lung carcinoma); test: Cell culture cytotoxicity screening (Alamar Blue), A-549; type: cell-based; conditions: A549, A-549, Alamar Blue, 72 hours
Experimental: as §1, with “IC50 and Emax values shown in Table 6 were extracted from the raw data plotted in FIG. 8.” left out
Cell culture cytotoxicity screening. The compounds were evaluated for their ability to kill cancer cell lines in culture, using HOS (osteosarcoma); ES-2 (ovarian cancer); HCT 116 (colon cancer); A549 (lung carcinoma); and A172 (glioma) cells. Human skin fibroblast cells (HFF-1) were also assessed. […] 72 hours post-treatment, cell viability was assessed using the Alamar Blue method (http://www.bio-rad-antibodies.com/measuring-cytotoxicity-proliferation-spectrophotometry-fluorescence-alamarBlue.html). […] Conversion of Alamar Blue was measured with a plate reader (SpectraMax M3; Molecular Devices) by fluorescence (excitation wavelength: 555 nm; emission wavelength: 585 nm; cutoff 570 nm; autogain). […]

[4] = system: Klebsiella pneumoniae ATCC 27736; test: Antibacterial bioassay (MIC), Klebsiella pneumoniae; type: cell-based; conditions: CLSI
Experimental: as §2

O=C(O)/C=C(\C(=O)O)C(O)P(=O)(O)O (centres unmarked) [pantaphos, 2-(hydroxy(phosphono)methyl)maleate]
Emax ([1]; Homo sapiens, MDA-MB-231, Alamar Blue, 72-hour treatment): 91%
IC50 ([1]; Homo sapiens, MDA-MB-231, Alamar Blue, 72-hour treatment (Table 6)): 2.68 ± 0.23 µM
sensitivity of the cell line to the compound, in words ([1]; MDA-MB-231): sensitive
MIC (Salmonella enterica LT2; Mueller-Hinton 2 medium, read-out: MIC, Rich medium): > 200 µM
MIC (Salmonella enterica LT2; glucose-MOPS minimal medium, read-out: MIC, Minimal medium): > 200 µM
MIC ([2]; ATCC25922, Mueller-Hinton 2 medium, read-out: MIC, Rich medium): > 200 µM
MIC ([2]; ATCC25922, glucose-MOPS minimal medium, read-out: MIC, Minimal medium): > 200 µM
IC50 [3]: 14.7 ± 0.61 µM
Emax ([3]; read-out: Emax = percentage cell death (converted)): 66%
MIC ([4]; ATCC27736, Mueller-Hinton 2 medium, read-out: MIC, Rich medium): > 200 µM
MIC ([4]; ATCC27736, glucose-MOPS minimal medium, read-out: MIC, Minimal medium): > 200 µM
